From publication PMC4327905 (Chemico-biological interactions, 2015)
Structures can show the parent of a compound that is named as a salt.

Molecular target: T1, transthyretin (Homo sapiens, UniProt P02766)
Assay: ANS fluorescence displacement
Assay type: binding

| SMILES | Kd [nM] |
| --- | --- |
| O=S(=O)(O)Oc1ccc(-c2ccc(Cl)cc2)c(Cl)c1 [4-PCB 8 sulfate, 2,4′-dichloro-4-sulfooxy-biphenyl] | 4.3 |

Molecular target: T1, transthyretin
Assay: acid-induced amyloid fibril formation, turbidity at […] nm, […] compound and […] TTR
Assay type: biochemical

| SMILES | Fibril Formation (%) [% fibril formation] |
| --- | --- |
| O=S(=O)(O)Oc1ccc(-c2cccc(Cl)c2)cc1Cl [4-PCB 11 sulfate, 3,3′-dichloro-4-sulfooxy-biphenyl] | 8.3 |
| Oc1ccc(-c2cccc(Cl)c2)cc1Cl [4-OHPCB 11, 3,3′-dichloro-biphenyl-4-ol] | 7.5 |
| O=S(=O)(O)Oc1ccc(-c2cc(Cl)ccc2Cl)cc1Cl [4′-PCB 26 sulfate, 2,3′,5-trichloro-4′-sulfooxy-biphenyl] | 10.5 |
| O=C(O)c1ccccc1Nc1cccc(C(F)(F)F)c1 [Flufenamic acid, reference compound] | 22.3 |
| O=S(=O)(O)Oc1ccc(-c2ccc(Cl)c(Cl)c2)c(Cl)c1 [4-PCB 33 sulfate, 2,3′,4′-trichloro-4-sulfooxy-biphenyl] | 12.7 |
| O=S(=O)(O)Oc1ccc(-c2ccc(Cl)cc2)cc1 [4′-PCB 3 sulfate, 4-chloro-4′-sulfooxy-biphenyl] | 37.2 |
| Oc1cccc(-c2ccc(Cl)cc2)c1 [3′-OHPCB 3, 4′-chloro-biphenyl-3-ol] | 52.3 |
| Oc1c(Cl)cc(-c2ccc(Cl)c(Cl)c2)cc1Cl [4′-OHPCB 79, 3,3′,4′,5-tetrachloro-biphenyl-4-ol, reference compound] | 32.2 |
| O=S(=O)(O)Oc1cccc(-c2ccc(Cl)cc2)c1 [3′-PCB 3 sulfate, 4-chloro-3′-sulfooxy-biphenyl] | 30.7 |
